Source: patent publication US7998989B2, “2-Imino-1,3-thiazoline-based compounds and T-type calcium channel inhibitors containing the same” (Korea Institute of Science and Technology, priority 2007, dated 2011)
Where two headings read alike, the source gives them in different places.

Columns and labels:
[1] = target: T1, α1G T-type calcium channel (Homo sapiens, UniProt O43497); assay: Assay for % inhibiting activity against T-type calcium channel using FDSS6000 (fluo-3 calcium imaging, KCl activation); type: cell-based
T1 construct: host or cells: HEK293
Description: In the present invention, in order to examine an efficient inhibitor against the T-type calcium channel, a primary assay for T-type calcium channel inhibiting activity was conducted by a high-efficient assay using FDSS6000, wherein mammal HEK293 cell lines (originated from human kidney carcinoma cells) that specifically express α1G of the T-type calcium channel was used for primary assay. Through the primary assay, compounds that show meaningful inhibition effects were selected. The selected compounds were used in a second assay for T-type calcium channel inhibiting activity using an electrophysiological whole cell patch clamp method, wherein mammal HEK293 cell lines (originated from human kidney carcinoma cells) that specifically express α1G of the T-type calcium channel was used for the second assay. Mibefradil, which had been developed as a T-type calcium channel inhibitor, was used as a reference.
At 12-24 hours before being used for this assay, cells of HEK293 cell line (α1G cell line: KCTC 10519BP, Korean Collection for Type Cultures), which stably express α1G T-type calcium channel and Kir2.1, were sub-cultured in a poly-L-lysine treated 96-well plate with the density of 4×10^4 per well using a 96-well cell dispenser (Titertek). On the day of assay, the 96-well plate to which the cells were attached was washed three times with HEPES buffer solution (150 mM of NaCl, 5 mM of KCl, 1 mM of MgCl2, 2 mM of CaCl2, 10 mM of HEPES, 10 mM of glucose; pH 7.4) using a 96-well plate automatic washing device (Bio Tek), then reacted with HEPES buffer solution containing 5 μM fluo-3/AM and 0.001% Pluronic F-127 at room temperature for 1 hour, to label with fluorescent dye, and then further washed two times with HEPES buffer solution.
Thereafter, at 10 minutes before the measurement using device FDSS6000, washing with HEPES buffer solution containing 10 mM CaCl2 was conducted once more, and the final volume was adjusted to 81 μl. Besides the above 96-well plate containing the cells, two additional drug 96-well plates were provided, wherein the 96-well plates contained an inhibiting drug and KCl (final concentration: 75 mM) for activating the T-type calcium channel, respectively. Since most of cell-based HTS devices are equipped with a liquid application system for injection of drug, but have no liquid sucking system, the inhibiting drug to be tested and KCl were respectively provided at a five-times higher concentration in 10 mM CaCl2 HEPES buffer solution at the amount of 27 μl, diluted by five-times at the final cell plate volume of 135 μl, and then used in this test. The concrete method of measurement using FDSS6000 was as follows. After recording the reference value of 20 seconds, the change of intracellular Ca^2+ concentration that was induced by treatment of the inhibiting drug to be tested for 75 seconds followed by administration of KCl was measured, wherein the percentage (%) inhibition effect of the test drug, through estimating the area of ratio value of 340/380 in the control without treatment of the test drug, was 100%. As a reference drug, 10 μM mibefradil was used.
For accurate calcium imaging, the light source of 4 xenon lamps in FDSS6000 were radiated to selectively expose the cells to the excitation wavelength (340 nm and 380 nm) by a computer-controlled filter wheel. Data was obtained at intervals of 1.23 seconds. The emitter fluorescence light inflowed through a long-pass filter was obtained as an average 340/380 ratio value for each well in the 96-wells by using a CCD camera and a digital fluorescence analyzer in FDSS6000. All image data and analyses were obtained by using a FDSS6000-exclusive program from Hamamatsu Photonics.
The obtained results are shown in Table 2 (the results from the compounds according to the examples of the present invention) and Table 3 (the results from the compounds according to the comparative example where R6 is a phenyl group) [FDSS (% inhibition) 10 μM].

[2] = 10 μM, FDSS (% inhibition), comparative compounds where R6 is a phenyl group, read-out: FDSS
[3] = HEK293, 10 μM, HEK293 cells stably expressing α1G T-type calcium channel and Kir2.1, compounds of the examples, read-out: FDSS (% inhibition)/10uM

T1 sequence (O43497 whole entry): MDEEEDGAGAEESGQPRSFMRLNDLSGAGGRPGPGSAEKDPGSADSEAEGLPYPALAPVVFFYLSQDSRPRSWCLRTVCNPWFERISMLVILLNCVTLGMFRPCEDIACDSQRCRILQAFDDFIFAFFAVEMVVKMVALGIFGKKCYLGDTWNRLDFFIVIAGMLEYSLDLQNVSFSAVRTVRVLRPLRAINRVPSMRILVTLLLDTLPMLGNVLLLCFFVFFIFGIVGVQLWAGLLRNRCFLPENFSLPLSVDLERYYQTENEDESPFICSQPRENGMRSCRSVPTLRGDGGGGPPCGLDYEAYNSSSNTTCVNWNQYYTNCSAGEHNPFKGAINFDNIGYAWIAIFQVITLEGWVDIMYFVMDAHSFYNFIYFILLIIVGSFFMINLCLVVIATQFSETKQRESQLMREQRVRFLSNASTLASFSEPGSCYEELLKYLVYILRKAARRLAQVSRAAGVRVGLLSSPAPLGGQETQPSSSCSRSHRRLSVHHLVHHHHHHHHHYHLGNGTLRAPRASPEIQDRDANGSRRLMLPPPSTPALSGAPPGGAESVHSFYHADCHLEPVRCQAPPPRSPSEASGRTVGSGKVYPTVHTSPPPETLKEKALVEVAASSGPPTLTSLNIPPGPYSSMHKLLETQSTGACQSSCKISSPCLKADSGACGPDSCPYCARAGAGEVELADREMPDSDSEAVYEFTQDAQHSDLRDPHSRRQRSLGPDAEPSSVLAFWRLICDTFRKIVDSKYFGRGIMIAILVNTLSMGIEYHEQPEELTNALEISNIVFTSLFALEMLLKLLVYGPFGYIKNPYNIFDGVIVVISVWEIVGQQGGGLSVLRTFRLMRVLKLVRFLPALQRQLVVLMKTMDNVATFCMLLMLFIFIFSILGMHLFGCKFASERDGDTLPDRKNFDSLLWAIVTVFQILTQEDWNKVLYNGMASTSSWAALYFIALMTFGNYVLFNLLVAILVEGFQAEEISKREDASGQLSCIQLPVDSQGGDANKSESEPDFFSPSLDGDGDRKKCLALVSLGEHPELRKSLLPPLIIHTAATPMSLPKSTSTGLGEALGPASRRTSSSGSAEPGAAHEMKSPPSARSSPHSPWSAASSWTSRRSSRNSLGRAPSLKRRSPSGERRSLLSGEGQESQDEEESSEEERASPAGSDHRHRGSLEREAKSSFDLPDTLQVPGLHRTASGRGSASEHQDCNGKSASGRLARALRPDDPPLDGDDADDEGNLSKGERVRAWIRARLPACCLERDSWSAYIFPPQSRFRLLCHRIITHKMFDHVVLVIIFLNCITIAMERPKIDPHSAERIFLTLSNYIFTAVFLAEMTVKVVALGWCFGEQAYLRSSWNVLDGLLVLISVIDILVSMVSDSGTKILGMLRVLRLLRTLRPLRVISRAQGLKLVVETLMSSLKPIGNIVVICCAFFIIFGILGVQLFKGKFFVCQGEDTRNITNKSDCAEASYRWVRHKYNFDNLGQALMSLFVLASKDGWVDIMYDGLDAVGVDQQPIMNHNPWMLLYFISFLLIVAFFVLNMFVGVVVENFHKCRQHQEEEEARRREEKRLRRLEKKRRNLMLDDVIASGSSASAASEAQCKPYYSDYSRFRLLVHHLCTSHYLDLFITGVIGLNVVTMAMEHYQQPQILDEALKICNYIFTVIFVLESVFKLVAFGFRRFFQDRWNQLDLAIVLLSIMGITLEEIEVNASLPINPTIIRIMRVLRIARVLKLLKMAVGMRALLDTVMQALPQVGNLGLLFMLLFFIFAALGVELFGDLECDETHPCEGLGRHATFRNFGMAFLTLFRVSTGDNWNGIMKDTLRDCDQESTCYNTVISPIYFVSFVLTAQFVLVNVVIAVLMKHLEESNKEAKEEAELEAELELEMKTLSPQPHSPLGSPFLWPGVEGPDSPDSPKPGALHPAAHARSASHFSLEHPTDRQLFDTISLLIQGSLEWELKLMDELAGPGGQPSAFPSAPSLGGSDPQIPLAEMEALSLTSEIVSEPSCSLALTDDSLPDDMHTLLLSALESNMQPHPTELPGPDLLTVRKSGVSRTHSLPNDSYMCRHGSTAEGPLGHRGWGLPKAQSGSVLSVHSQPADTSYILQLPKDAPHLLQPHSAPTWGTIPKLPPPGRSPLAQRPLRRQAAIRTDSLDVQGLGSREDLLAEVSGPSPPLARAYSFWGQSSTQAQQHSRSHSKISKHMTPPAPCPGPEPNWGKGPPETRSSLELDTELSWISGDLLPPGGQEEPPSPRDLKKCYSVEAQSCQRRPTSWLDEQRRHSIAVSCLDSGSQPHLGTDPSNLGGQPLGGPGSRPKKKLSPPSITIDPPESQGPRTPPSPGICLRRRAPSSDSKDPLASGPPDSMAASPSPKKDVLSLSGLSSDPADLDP

Row | inhibition at 10 µM [1, 2] | melting point | inhibition at 10 µM [1, 3] | SMILES
1 | 2.59% | 238 to 242 °C |  | CN1C(=Nc2ccc(Oc3ccccc3)cc2)SCC1CC(=O)Nc1ccc(Cl)cc1.Cl (stereo not shown) [KHG21650, [2-(4-phenoxyphenylimino)-3-methyl-1,3-thiazolidine-4-yl]-N-(4-chlorophenyl)-acetamide hydrochloride]
2 | -7.7% | 239 to 242 °C |  | CN1C(=Nc2ccc(Cl)cc2)SCC1CC(=O)Nc1ccc(Cl)cc1.Cl (stereo not shown) [KHG21652, [2-(4-chlorophenylimino)-3-methyl-1,3-thiazolidine-4-yl]-N-(4-chlorophenyl)-acetamide hydrochloride]
3 | -2.17% | 201 to 203 °C |  | CC(C)Oc1cccc(N=C2SCC(CC(=O)Nc3ccc(Cl)cc3)N2C)c1.Cl (stereo not shown) [KHG21653, [2-(3-isopropoxyphenylimino)-3-methyl-1,3-thiazolidine-4-yl]-N-(4-chlorophenyl)-acetamide hydrochloride]
4 | -1.13% | 239 to 241 °C |  | CCCCc1ccc(N=C2SCC(CC(=O)Nc3ccc(Cl)cc3)N2C)cc1.Cl (stereo not shown) [KHG21654, [2-(4-n-butylphenylimino)-3-methyl-1,3-thiazolidine-4-yl]-N-(4-chlorophenyl)-acetamide hydrochloride]
5 | 4.68% | 228 °C |  | CN1C(=Nc2cccc([N+](=O)[O-])c2)SCC1CC(=O)Nc1ccc(Cl)cc1.Cl (stereo not shown) [KHG21655, [2-(3-nitrophenylimino)-3-methyl-1,3-thiazolidine-4-yl]-N-(4-chlorophenyl)-acetamide hydrochloride]
6 | -2.56% | 238 to 242.8 °C |  | CC(C)c1ccc(NC(=O)CC2CSC(=Nc3ccc(C(F)(F)F)cc3)N2C)cc1.Cl (stereo not shown) [KHG21943, [2-(4-trifluoromethylphenylimino)-3-methyl-1,3-thiazolidine-4-yl]-N-(4-isopropylphenyl)-acetamide hydrochloride]
7 | 5.89% | 190 to 194 °C |  | CC(C)Oc1cc(N=C2SCC(CC(=O)Nc3ccc(C(C)C)cc3)N2C)c(F)cc1Cl.Cl (stereo not shown) [KHG21944, [2-(4-chloro-5-isopropoxy-2-fluorophenylimino)-3-methyl-1,3-thiazolidine-4-yl]-N-(4-isopropylphenyl)-acetamide hydrochloride]
8 | 7.71% | 234 to 235 °C |  | CC(C)c1ccc(NC(=O)CC2CSC(=Nc3ccc(C#N)cc3)N2C)cc1.Cl (stereo not shown) [KHG21945, [2-(4-cyanophenylimino)-3-methyl-1,3-thiazolidine-4-yl]-N-(4-isopropylphenyl)-acetamide hydrochloride]
9 | 23.9% | 239 to 241 °C |  | CC(C)c1ccc(NC(=O)CC2CSC(=Nc3ccc(F)c(Cl)c3)N2C)cc1.Cl (stereo not shown) [KHG21947, [2-(3-chloro-4-fluorophenylimino)-3-methyl-1,3-thiazolidine-4-yl]-N-(4-isopropylphenyl)-acetamide hydrochloride]
10 | 5.41% | 198 to 201 °C |  | CC(C)c1ccc(NC(=O)CC2CSC(=Nc3cccc(Br)c3)N2C)cc1.Cl (stereo not shown) [KHG21949, [2-(3-bromophenylimino)-3-methyl-1,3-thiazolidine-4-yl]-N-(4-isopropylphenyl)-acetamide hydrochloride]
11 | 7.37% | 239 to 240 °C |  | CN1C(=Nc2ccc(Cl)cc2)SCC1CC(=O)Nc1ccc(Cl)cc1F.Cl (stereo not shown) [KHG23064, [2-(4-chlorophenylimino)-3-methyl-1,3-thiazolidine-4-yl]-N-(4-chloro-2-fluorophenyl)-acetamide hydrochloride]
12 | 3.57% | 239 to 240 °C |  | CN1C(=Nc2ccc(Br)cc2)SCC1CC(=O)Nc1ccc(Cl)cc1F.Cl (stereo not shown) [KHG23065, [2-(4-bromophenylimino)-3-methyl-1,3-thiazolidine-4-yl]-N-(4-chloro-2-fluorophenyl)-acetamide hydrochloride]
13 | 1.3% | 223 to 224 °C |  | CCCCc1ccc(N=C2SCC(CC(=O)Nc3ccc(Cl)cc3F)N2C)cc1.Cl (stereo not shown) [KHG23066, [2-(4-n-butylphenylimino)-3-methyl-1,3-thiazolidine-4-yl]-N-(4-chloro-2-fluorophenyl)-acetamide hydrochloride]
14 | -2.73% | 136 to 137 °C |  | CN1C(=Nc2ccc(C#N)cc2)SCC1CC(=O)Nc1ccc(Cl)cc1F.Cl (stereo not shown) [KHG23067, [2-(4-cyanophenylimino)-3-methyl-1,3-thiazolidine-4-yl]-N-(4-chloro-2-fluorophenyl)-acetamide hydrochloride]
15 | 5.76% | 222 to 223 °C |  | CN1C(=Nc2ccc(C(F)(F)F)cc2)SCC1CC(=O)Nc1ccc(Cl)cc1F.Cl (stereo not shown) [KHG23068, [2-(4-trifluoromethylphenylimino)-3-methyl-1,3-thiazolidine-4-yl]-N-(4-chloro-2-fluorophenyl)-acetamide hydrochloride]
16 | 4.33% | 243 to 245 °C |  | Cc1ccc(N=C2SCC(CC(=O)Nc3ccc(Cl)cc3F)N2C)cc1.Cl (stereo not shown) [KHG23069, [2-(4-methylphenylimino)-3-methyl-1,3-thiazolidine-4-yl]-N-(4-chloro-2-fluorophenyl)-acetamide hydrochloride]
17 | 7.44% | 236 to 237 °C |  | CN1C(=Nc2ccc(OC(F)(F)F)cc2)SCC1CC(=O)Nc1ccc(Cl)cc1F.Cl (stereo not shown) [KHG23070, [2-(4-trifluoromethoxyphenylimino)-3-methyl-1,3-thiazolidine-4-yl]-N-(4-chloro-2-fluorophenyl)-acetamide hydrochloride]
18 | 15.5% | 237 to 238 °C |  | CC(C)c1ccc(N=C2SCC(CC(=O)Nc3ccc(Cl)cc3F)N2C)cc1.Cl (stereo not shown) [KHG23071, [2-(4-isopropylphenylimino)-3-methyl-1,3-thiazolidine-4-yl]-N-(4-chloro-2-fluorophenyl)-acetamide hydrochloride]
19 | 29.4% | 242 °C |  | CCc1ccc(N=C2SCC(CC(=O)Nc3ccc(Cl)cc3F)N2C)cc1.Cl (stereo not shown) [KHG23072, [2-(4-ethylphenylimino)-3-methyl-1,3-thiazolidine-4-yl]-N-(4-chloro-2-fluorophenyl)-acetamide hydrochloride]
20 | 28.3% | 222 to 223 °C |  | CN1C(=Nc2ccc(-c3ccccc3)cc2)SCC1CC(=O)Nc1ccc(Cl)cc1F.Cl (stereo not shown) [KHG23073, [2-(4-phenylphenylimino)-3-methyl-1,3-thiazolidine-4-yl]-N-(4-chloro-2-fluorophenyl)-acetamide hydrochloride]
21 |  | 233.5 to 235 °C | 53% | COc1ccc(NC(=O)CC2CSC(=NC3CCCCC3)N2C)cc1Cl.Cl (stereo not shown) [KHG24070, (2-cyclohexylimino-3-methyl-1,3-thiazolidine-4-yl)-N-(3-chloro-4-methoxyphenyl)-acetamide hydrochloride]
22 |  | 146 °C | 52.1% | Cc1cc(Cl)c(NC(=O)CC2CSC(=NC3CCCCC3)N2C)cc1Cl.Cl (stereo not shown) [KHG24071, (2-cyclohexylimino-3-methyl-1,3-thiazolidine-4-yl)-N-(2,5-dichloro-4-methylphenyl)-acetamide hydrochloride]
23 |  | 234 to 235.5 °C | 57.3% | CN1C(=NC2CCCCC2)SCC1CC(=O)Nc1ccc(C(C)(C)C)cc1.Cl (stereo not shown) [KHG24073, (2-cyclohexylimino-3-methyl-1,3-thiazolidine-4-yl)-N-(4-t-butylphenyl)-acetamide hydrochloride]
